Data: patent publication EP4790048A1, “S1PR4 REGULATOR COMPOUND FOR AUTOIMMUNE DISEASE TREATMENT AND APPLICATION THEREOF” (Shengyuan Zetong (Shanghai) Pharmaceutical Co., Ltd, priority 2023, dated 2025)
Entries after “also recorded” stand apart in the source; their conditions may differ. Read-outs that look alike come from different tables or passages of the source.

Columns and labels:
[1] = Pharmacokinetic property testing in rats; type: in vivo, SD rats; details: for CL_obs / Vss_obs / AUC(0-t) / Cmax / half-life / Tmax / F (%): male SD rats; for AUC(0-t) / Cmax / half-life / Tmax / bioavailability: Sprague-Dawley, rat, in vivo; for Tmax: 3 per group; for bioavailability: male, oral, 10 mg/kg; for F (%): oral bioavailability, PO 10 mg/kg vs IV 1 mg/kg
Text: In the structure-activity relationship discussion, the inventors obtained key compound 22. Based on compound 22, the polar head of the compound was modified as chiral pyrrolidine carboxylic acid, yielding selective S1PR4 agonists 30 and 67. We conducted pharmacokinetic property analyses on compounds 22, 30, and 67, respectively.

MRL/lpr mice = assay: Systemic lupus erythematosus model, MRL/lpr mice; type: in vivo; details: for renal pathology (HE and PAS staining): 8 weeks of treatment
Procedure: Based on this, the inventor conducted efficacy evaluation on this compound using MRL/lpr mice, a classic model of lupus erythematosus.
The efficacy of Compound 67 was evaluated using MRL/Lpr lupus model mice.
The specific groups were as follows: MPJ control group, model group, positive drug Cenerimod group at 0.5 mg/kg, and Compound 67 at two doses: 1 mg/kg and 3 mg/kg.

S1PR3 = target: T1, S1PR3 (Homo sapiens, UniProt Q99500); assay: β-arrestin recruitment, PathHunter CHO-K1-S1PR3 cells; type: cell-based; details: mean ± SD
T1 construct: expressed in transfected cells

SKG mice = assay: Curdlan-induced ankylosing spondylitis (AS) model in SKG mice; type: in vivo; details: compound 30 3 mg/kg; for peripheral clinical symptom scores: Week 12, compound 67 3 mg/kg intragastric daily, adalimumab 10 mg/kg i.p., P < 0.05 vs model group; for swelling of the wrist and ankle joints / spinal CT imaging scores: compound 67 3 mg/kg; for spinal CT imaging scores: adalimumab 10 mg/kg, P<0.05 vs model group
Procedure: After adaptive feeding, SKG mice were used for the experiment. Except for 5 mice as the blank control group, the other 20 mice were intraperitoneally injected with Curdlan (3 mg per mouse) at week 0 and week 2 of the experiment to establish an AS mouse model, and were randomly divided into 4 groups: model group, positive control group treated with adalimumab (10 mg/kg), compound 30 group (3 mg/kg), and compound 67 group (3 mg/kg), with 5 mice in each group. Mice in the compound 30 and 67 groups were intragastrically administered compound 30 and 67 daily starting from week 3.3 until sacrifice; the positive control group received intraperitoneal injection of adalimumab injection (first administration at week 3.3, second at week 9). Body weight was measured every week to adjust the dosage.
Clinical symptom observation of the limbs and toes were conducted, and their redness and swelling were scored, with a total score of 16 points (4 points per foot).
• 0 = No swelling • 1 = Mild swelling and redness on the top of the foot • 2 = Severe swelling and redness on the top of the foot • 3 = Severe swelling and redness in the wrist or ankle joint • 4 = Severe swelling in the wrist or ankle joint and toes.
CT scans were performed on mice at Week 13.4 and 14.3 of the experiment to obtain imaging data of the mice's bones and joints. Image WL: 1400; WW: 2000.
• 1. Spine (total 2 points): 1 point for narrowed intervertebral space, 2 points for complete fusion. • 2. Sacroiliac joints (1 point for each side, total 2 points): 0.5 points for blurred and sclerotic articular surface, 0.5 points for narrowed joint space. • 3. Zygapophyseal joints of the spine (1 point for each side, total 2 points): 0.5 points for narrowed joint space, 1 point for complete fusion.
Analysis of variance (ANOVA) was performed using IBM SPSS Statistics software to obtain statistical results of the dataset, with P < 0.05 considered statistically significant.

BALB/c mice = assay: Imiquimod-induced mouse psoriasis model; type: in vivo
Text: The imiquimod-induced mouse psoriasis model is a commonly used model for psoriasis research. This model uses the topical immune modulator imiquimod (IMQ) to induce lesions similar to human psoriasis on the skin of mice.
• Mice: Female BALB/c mice, aged 6-8 weeks. • Imiquimod cream: 5% IMQ cream. • Experimental Procedures • Animal preparation: Mice were acclimated to the laboratory environment for at least one week.
Random grouping: Generally, 5 mice were included in each group. Specifically, the groups were as follows: adalimumab injection group for positive control; compounds 30 and 67 administered by gavage, divided into 3 dosage groups: 0.3, 1, and 3 mg/kg.
The hair on the backs of the mice in each group was shaved with a razor, covering an area of approximately 2 × 3 cm^2.
5% IMQ cream was applied daily to the shaved area on the mouse backs at a dose of 62.5 mg of IMQ cream for 6-7 consecutive days. Skin reactions of the mice were observed after 7 days, including erythema, scaling, and skin thickening.

mouse = assay: DSS mouse acute UC model, dosing concurrent with modeling (Example 7); type: in vivo; details: intragastric, Compound 30 0.3, 1, 3 mg/kg, Compound 67 1 mg/kg; for colon length: positive control RPC1063 1 mg/kg
Procedure: Mouse models were established using DSS, with the protocol being 2.5% DSS in drinking water for 5 days followed by ad libitum normal drinking water for 2 days. Intragastric administration was performed concurrently with modeling, and RPC1063 was used as the positive control drug. The specific groupings were as follows: RPC1063 was administered intragastrically at 1 mg/kg. Compound 30 was tested at three doses: 0.3 mg/kg, 1 mg/kg, and 3 mg/kg. Compound 38 was administered at 5 mg/kg, while Compounds 53, 67, 77, and 80 were each administered at 1 mg/kg.

S1PR2 = target: T2, S1PR2 (Homo sapiens, UniProt O95136); assay: FLIPR assay, S1PR2-CHO cell line; type: cell-based; details: mean ± SD
T2 construct: expressed in transfected cells

[2] = gavage 0.3, 1 and 3 mg/kg, after 7 days of IMQ
[3] = high dose of 3 mg/kg, compared with adalimumab
[4] = Compound 67 1 mg/kg and 3 mg/kg, 8 weeks, vs SLE model group

T2 sequence (O95136 whole entry, species assumed): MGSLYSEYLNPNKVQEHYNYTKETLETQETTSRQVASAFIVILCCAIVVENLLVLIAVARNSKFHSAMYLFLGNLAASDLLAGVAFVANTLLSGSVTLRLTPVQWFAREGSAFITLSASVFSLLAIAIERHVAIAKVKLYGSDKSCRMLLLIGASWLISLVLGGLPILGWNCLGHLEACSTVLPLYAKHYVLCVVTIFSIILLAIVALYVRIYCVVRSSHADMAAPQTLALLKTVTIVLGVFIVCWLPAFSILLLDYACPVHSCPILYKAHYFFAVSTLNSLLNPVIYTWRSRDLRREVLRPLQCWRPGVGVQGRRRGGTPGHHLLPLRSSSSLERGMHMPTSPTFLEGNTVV
T1 sequence (Q99500 whole entry, species assumed): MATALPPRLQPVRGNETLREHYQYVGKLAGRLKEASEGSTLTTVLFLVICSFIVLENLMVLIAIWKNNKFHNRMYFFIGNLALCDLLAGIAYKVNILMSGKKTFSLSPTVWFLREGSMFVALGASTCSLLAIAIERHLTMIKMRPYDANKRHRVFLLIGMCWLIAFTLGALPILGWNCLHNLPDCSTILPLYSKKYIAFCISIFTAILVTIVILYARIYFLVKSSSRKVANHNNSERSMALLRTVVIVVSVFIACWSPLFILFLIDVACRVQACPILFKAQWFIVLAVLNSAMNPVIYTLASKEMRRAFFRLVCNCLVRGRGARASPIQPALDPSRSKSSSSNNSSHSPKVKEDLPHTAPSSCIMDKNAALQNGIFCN

| SMILES | CL_obs ([1]; IV (1 mg/kg)) [L/h/kg] | Vss_obs ([1]; IV (1 mg/kg)) [L/kg] | CL_obs ([1]; PO (10 mg/kg)) [L/h/kg] | Vss_obs ([1]; PO (10 mg/kg)) [L/kg] | AUC(0-t) ([1]; IV (1 mg/kg)) [ng·h/mL] | Cmax ([1]; IV (1 mg/kg)) [ng/mL] | half-life ([1]; IV (1 mg/kg)) [min] | Tmax ([1]; IV (1 mg/kg)) [min] | AUC(0-t) ([1]; PO (10 mg/kg)) [ng·h/mL] | Cmax ([1]; PO (10 mg/kg)) [ng/mL] | half-life ([1]; PO (10 mg/kg)) [min] | Tmax ([1]; PO (10 mg/kg)) [min] | bioavailability [1] [%] | F (%) [1] [%] | renal pathology (HE and PAS staining) (MRL/lpr mice; vs SLE model group) | serum anti-nuclear / anti-double-stranded DNA antibody level (MRL/lpr mice; 8 weeks, vs SLE model group) | Th1- and Th17-positive cells in spleen, Th1/Th2 and Th17/Treg ratios (MRL/lpr mice; vs SLE model group) | EC50 (S1PR3; read-out: EC50) [µM] | peripheral clinical symptom scores (SKG mice) | swelling of the wrist and ankle joints (SKG mice) | further results |
| --- | --- | --- | --- | --- | --- | --- | --- | --- | --- | --- | --- | --- | --- | --- | --- | --- | --- | --- | --- | --- | --- |
| CCc1cc(/C(C)=N/OCc2ccc(-c3ccccc3)c(C)c2)ccc1CN1CC[C@H](C(=O)O)C1 [Compound 30] | 1.21 ± 0.44 | 3.59 ± 1.16 | 1.02 ± 0.08 | 4.08 ± 0.32 | 824 ± 284 | 438 ± 82.6 | 129 ± 3.6 | 4.8 | 9860 ± 794 | 1030 ± 91.9 | 167 ± 7.2 | 120 | 120 | 119.7 | improves renal pathological injury; also recorded: renal interstitial inflammatory cell infiltration was significantly reduced | dose-dependently reduces; also recorded: markedly decreased | regulates the number and ratio of T lymphocytes; also recorded: significantly reduce the number of Th1- and Th17-positive cells | > 10 | significantly lower | significantly reduced swelling of the wrist and ankle joints | subcutaneous nodules (MRL/lpr mice; SLE mice, vs model): dose-dependently reduces; also recorded: significantly reduced subcutaneous nodules; body weight gain and mortality (MRL/lpr mice; continuous administration for 8 weeks, vs SLE model group): reduces the mortality rate; also recorded: prevented body weight gain and reduced mortality in a dose-dependent manner; EC50 (S1PR3): no agonist activity; spinal CT imaging scores (SKG mice): significantly lower imaging scores; skin reactions (erythema, scaling, skin thickening) (BALB/c mice; [2]): significant alleviating effects at all concentrations in a dose-dependent manner; skin reactions (erythema, scaling, skin thickening) (BALB/c mice; [3]): therapeutic effects similar to those of adalimumab; DAI scores (mouse): favorable effects; body weight (mouse): concentration-dependent recovery; colon length (mouse): significant efficacy; EC50 (S1PR2): no agonist activity; EC50 (S1PR2; read-out: EC50): > 10 µM |
| CCc1cc(/C(C)=N/OCc2ccc(-c3cnc(F)cn3)c(C)c2)ccc1CN1CC[C@H](C(=O)O)C1 [Compound 67, (S, E)-1-(2-ethyl-4-(1-(((4-(5-fluoropyrazin-2-yl)-3-methylbenzyl)oxy)imino)ethyl)benzyl)pyrrolidine-3-carboxylic acid] | 1.19 ± 0.04 | 1.52 ± 0.02 | 1.55 ± 0.27 | 4.88 ± 1.17 | 836 ± 27 | 958 ± 45.9 | 70.8 ± 0.6 | 4.8 | 6370 ± 1510 | 986 ± 277 | 130 ± 6.6 | 110 ± 113 | 76.2 | 76.21 | inflammatory cell infiltration was significantly reduced | significantly reduces the anti-double-stranded DNA antibody level; also recorded: significantly reduce the level of anti-double-stranded DNA antibody | regulates the number and ratio of T lymphocytes; also recorded: significantly reduce the number of Th1- and Th17-positive cells | > 10 | significantly lower | significantly reduced swelling of the wrist and ankle joints | serum creatinine level (MRL/lpr mice; [4]): significantly reduce the serum creatinine level; urinary microalbumin level (MAU) (MRL/lpr mice; [4]): significantly reduced the urinary microalbumin level; spinal CT imaging scores (SKG mice): significantly lower imaging scores; skin reactions (erythema, scaling, skin thickening) (BALB/c mice; [2]): significant alleviating effects at all concentrations in a dose-dependent manner; skin reactions (erythema, scaling, skin thickening) (BALB/c mice; [3]): therapeutic effects similar to those of adalimumab; DAI scores (mouse): favorable effects; body weight (mouse): less body weight loss; colon length (mouse): significant efficacy; EC50 (S1PR2; read-out: EC50): > 10 µM |
